Patent US11912693B2, “Compounds for modulating S1P1 activity and methods of using the same” (TREVENA, INC., priority 2017, dated 2024)
Values belong to the compound of their own block, whether it stands above or below them.

Legend:
[1] = biological target: human sphingosine-1-phosphate receptor 3 (S1P3) (Homo sapiens (Human), UniProt Q99500); assay: Inhibition of cAMP production (HTRF), S1P3 CHO-K1 cells; type: cell-based; conditions: for hS1P3 cAMP pEC50: inhibition of cAMP production; for Emax: CHO-K1, efficacy normalized to fingolimod, read-out: hS1P3 cAMP SPAN
Sequence of human sphingosine-1-phosphate receptor 3 (S1P3) (Q99500 whole entry): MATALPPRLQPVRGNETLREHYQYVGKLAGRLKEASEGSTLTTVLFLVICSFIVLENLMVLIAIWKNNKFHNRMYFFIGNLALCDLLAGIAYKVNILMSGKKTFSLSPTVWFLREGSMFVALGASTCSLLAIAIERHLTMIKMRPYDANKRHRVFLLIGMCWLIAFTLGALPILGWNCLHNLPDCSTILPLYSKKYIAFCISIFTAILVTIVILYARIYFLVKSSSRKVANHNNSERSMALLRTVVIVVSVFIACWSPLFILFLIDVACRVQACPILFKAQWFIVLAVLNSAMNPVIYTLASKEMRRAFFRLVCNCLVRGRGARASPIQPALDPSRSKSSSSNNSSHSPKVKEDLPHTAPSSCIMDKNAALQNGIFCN

[2] = biological target: sphingosine-1-phosphate receptor 5 (S1P5) (Homo sapiens (Human), UniProt Q9H228); assay: Inhibition of cAMP production (HTRF), S1P5 CHO-K1 cells; type: cell-based; conditions: for hS1P5 cAMP pEC50: inhibition of cAMP production; for Emax: CHO-K1, efficacy normalized to fingolimod, read-out: hS1P5 cAMP SPAN
Sequence of sphingosine-1-phosphate receptor 5 (S1P5) (Q9H228 whole entry): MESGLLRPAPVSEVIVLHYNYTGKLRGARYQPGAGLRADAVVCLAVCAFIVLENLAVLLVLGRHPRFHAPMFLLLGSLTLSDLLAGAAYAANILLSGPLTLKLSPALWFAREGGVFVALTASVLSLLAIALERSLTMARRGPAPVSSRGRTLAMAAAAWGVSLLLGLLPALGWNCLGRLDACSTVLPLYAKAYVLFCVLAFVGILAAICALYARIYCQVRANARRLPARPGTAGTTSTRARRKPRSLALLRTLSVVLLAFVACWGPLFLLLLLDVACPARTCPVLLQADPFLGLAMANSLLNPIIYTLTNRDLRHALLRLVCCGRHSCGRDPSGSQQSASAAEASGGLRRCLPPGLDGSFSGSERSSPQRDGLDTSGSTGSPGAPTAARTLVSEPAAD

[3] = biological target: human sphingosine-1-phosphate receptor 1 (S1P1) (Homo sapiens (Human), UniProt P21453); assay: Inhibition of cAMP production (HTRF cAMP HiRange), S1P1 CHO-K1 cells; type: cell-based; conditions: for hS1P1 cAMP pEC50: inhibition of cAMP production, S1P1 CHO-K1 cells; for Emax: CHO-K1, efficacy (SPAN) normalized to fingolimod, read-out: hS1P1 cAMP SPAN
Sequence of human sphingosine-1-phosphate receptor 1 (S1P1) (P21453 whole entry, looked up): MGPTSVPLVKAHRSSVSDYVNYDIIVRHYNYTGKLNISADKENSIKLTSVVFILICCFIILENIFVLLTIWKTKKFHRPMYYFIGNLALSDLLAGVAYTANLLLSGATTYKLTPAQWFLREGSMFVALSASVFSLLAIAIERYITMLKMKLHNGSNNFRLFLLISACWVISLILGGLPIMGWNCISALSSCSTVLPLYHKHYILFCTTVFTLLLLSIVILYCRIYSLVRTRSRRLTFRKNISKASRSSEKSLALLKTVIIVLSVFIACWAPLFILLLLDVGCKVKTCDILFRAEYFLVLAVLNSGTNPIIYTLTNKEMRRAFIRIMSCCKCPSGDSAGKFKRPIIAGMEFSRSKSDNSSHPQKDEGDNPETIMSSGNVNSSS
In short: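 CHO-K1 cells stably co-expressing human S1P1 (C-terminal Prolink tag) and EA-β-arrestin2 were grown in AssayComplete Media 6 at 37° C. and 5% CO2, plated, and incubated overnight. Agonist-driven inhibition of intracellular cAMP was read by TR-FRET with the HTRF cAMP HiRange kit on a PheraStar reader. Potency is pEC50, and efficacy (SPAN) is normalized to fingolimod.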

hERG channel = hERG channel (Homo sapiens (Human), UniProt Q12809); assay: Automated Qpatch patch-clamp hERG assay
Sequence of hERG channel (Q12809 whole entry): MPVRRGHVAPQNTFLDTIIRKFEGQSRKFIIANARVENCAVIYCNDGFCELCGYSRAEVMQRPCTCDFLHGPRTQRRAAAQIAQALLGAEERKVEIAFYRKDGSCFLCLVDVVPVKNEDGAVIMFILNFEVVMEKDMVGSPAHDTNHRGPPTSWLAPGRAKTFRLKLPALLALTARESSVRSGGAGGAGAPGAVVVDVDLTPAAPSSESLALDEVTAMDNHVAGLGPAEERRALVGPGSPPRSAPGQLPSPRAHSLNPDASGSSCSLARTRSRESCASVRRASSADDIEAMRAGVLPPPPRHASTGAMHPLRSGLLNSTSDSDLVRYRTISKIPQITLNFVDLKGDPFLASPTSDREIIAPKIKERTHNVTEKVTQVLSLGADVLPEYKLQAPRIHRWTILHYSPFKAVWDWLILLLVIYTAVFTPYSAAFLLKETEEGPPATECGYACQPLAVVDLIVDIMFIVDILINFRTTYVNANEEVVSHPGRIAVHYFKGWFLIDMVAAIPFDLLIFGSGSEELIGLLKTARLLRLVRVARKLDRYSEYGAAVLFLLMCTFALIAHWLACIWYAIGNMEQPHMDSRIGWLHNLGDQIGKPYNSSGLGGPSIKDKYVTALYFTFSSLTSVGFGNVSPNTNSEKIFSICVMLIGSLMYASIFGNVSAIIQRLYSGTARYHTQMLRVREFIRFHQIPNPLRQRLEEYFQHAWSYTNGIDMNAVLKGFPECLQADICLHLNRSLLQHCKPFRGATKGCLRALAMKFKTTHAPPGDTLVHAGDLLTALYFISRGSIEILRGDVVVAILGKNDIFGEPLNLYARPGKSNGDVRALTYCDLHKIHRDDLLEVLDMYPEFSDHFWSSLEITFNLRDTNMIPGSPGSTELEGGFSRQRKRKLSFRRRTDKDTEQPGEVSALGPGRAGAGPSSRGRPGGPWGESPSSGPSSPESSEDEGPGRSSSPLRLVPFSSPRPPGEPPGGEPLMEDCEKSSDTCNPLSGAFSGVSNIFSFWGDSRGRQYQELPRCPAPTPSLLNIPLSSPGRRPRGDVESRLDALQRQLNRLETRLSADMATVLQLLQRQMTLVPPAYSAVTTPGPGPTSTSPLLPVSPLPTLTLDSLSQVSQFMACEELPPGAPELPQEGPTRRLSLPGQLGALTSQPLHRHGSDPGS

[4] = tested on: peripheral blood lymphocytes; assay: Peripheral blood lymphocytes (lymphopenia) in c57bl/6 mice, acute and chronic studies; type: in vivo; conditions: 6 mg/kg sc, 7 days; for Lymphopenia: Effect and Doses, mg/kg, sc: peripheral blood lymphocytes vs vehicle
In short: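 Mice dosed subcutaneously: acute, single 3 mg/kg (n=5/group), blood taken at set time points; chronic, seven days in dose response (up to 3 mg/kg) or screening at 6 mg/kg (n=6-8/group), blood taken 45 min after final dose. Lymphocyte counts (10^3 cells/μl) by haematology analyser, compared with vehicle.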

Compound: COc1ccc(-c2noc(-c3ccc4c(c3)nnn4CC(C)(C)O)n2)c(C)c1 [Compound 26, 1-{5-[3-(4-methoxy-2-methylphenyl)-1,2,4-oxadiazol-5-yl]-1H-1,2,3-benzotriazol-1-yl}-2-methylpropan-2-ol]
hS1P3 cAMP pEC50 [1]: <5.0
hS1P5 cAMP pEC50 [2]: <5.0
hS1P1 cAMP pEC50 [3]: >6.5
IC50 (hERG channel): > 10 µM

Compound: Cc1ccccc1-c1nc(-c2ccc3c(c2)nnn3C(C)C)no1 [Compound 99, 3-(1-isopropyl-1H-benzo[d][1,2,3]triazol-5-yl)-5-(o-tolyl)-1,2,4-oxadiazole]
hS1P3 cAMP pEC50 [1]: <5.0
hS1P5 cAMP pEC50 [2]: <5.0
Lymphopenia: Effect and Doses, mg/kg, sc [4]: no change: 6 mg/kg, 7 days
hS1P1 cAMP pEC50 [3]: >6.5

Compound: CCC1(CC)CC(=O)c2cc(-c3nc(-c4cccnc4)no3)ccc2O1 [Compound 103, 2,2-diethyl-6-[3-(pyridin-3-yl)-1,2,4-oxadiazol-5-yl]-3,4-dihydro-2H-1-benzopyran-4-one]
Emax [1]: < 50%
hS1P3 cAMP pEC50 [1]: <5.0
Emax [2]: < 50%
hS1P5 cAMP pEC50 [2]: <5.0
Lymphopenia: Effect and Doses, mg/kg, sc [4]: no change: 6 mg/kg, 7 days
Emax [3]: > 75%
hS1P1 cAMP pEC50 [3]: >6.5

Compound: CCC1(CC)CC(=O)c2cc(-c3nc(-c4cccnc4OC)no3)ccc2O1 [Compound 147, 2,2-diethyl-6-(3-(2-methoxypyridin-3-yl)-1,2,4-oxadiazol-5-yl)chroman-4-one]
Emax [1]: < 50%
hS1P3 cAMP pEC50 [1]: <5.0
Emax [2]: < 50%
hS1P5 cAMP pEC50 [2]: >5.0
Lymphopenia: Effect and Doses, mg/kg, sc [4]: no change: 6 mg/kg, 7 days
Emax [3]: > 75%
hS1P1 cAMP pEC50 [3]: >6.5

Compound: CCC1(CC)CC(=O)c2cc(-c3nc(-c4ccncc4OC)no3)ccc2O1 [Compound 212, 2,2-diethyl-6-(3-(3-methoxypyridin-4-yl)-1,2,4-oxadiazol-5-yl)chroman-4-one]
Emax [1]: < 50%
hS1P3 cAMP pEC50 [1]: <5.0
Emax [2]: < 50%
hS1P5 cAMP pEC50 [2]: <5.0
Emax [3]: > 75%
hS1P1 cAMP pEC50 [3]: >6.5

Compound: COc1ccccc1-c1nc(-c2ccc3c(c2)nnn3C(C)C)no1 [Compound 287, 3-(1-isopropyl-1H-benzo[d][1,2,3]triazol-5-yl)-5-(2-methoxyphenyl)-1,2,4-oxadiazole]
hS1P3 cAMP pEC50 [1]: <5.0
hS1P5 cAMP pEC50 [2]: <5.0
Lymphopenia: Effect and Doses, mg/kg, sc [4]: no change: 6 mg/kg, 7 days
hS1P1 cAMP pEC50 [3]: >6.5

Compound: Cc1ccccc1-c1noc(-c2ccc3c(c2)nnn3C(C)C)n1 [Compound 293, 5-[3-(2-methylphenyl)-1,2,4-oxadiazol-5-yl]-1-(propan-2-yl)-1H-1,2,3-benzotriazole]
Emax [1]: < 50%
hS1P3 cAMP pEC50 [1]: <5.0
Emax [2]: > 50%
hS1P5 cAMP pEC50 [2]: <5.0
Lymphopenia: Effect and Doses, mg/kg, sc [4]: no change: 6 mg/kg, 7 days
Emax [3]: > 75%
hS1P1 cAMP pEC50 [3]: >6.5

Compound: CC(C)n1nnc2cc(-c3nc(-c4cccc5c4OCCC5)no3)ccc21 [Compound 304, 3-chroman-8-yl-5-(1-isopropylbenzotriazol-5-yl)-1,2,4-oxadiazole]
hS1P3 cAMP pEC50 [1]: >5.0
hS1P5 cAMP pEC50 [2]: <5.0
Lymphopenia: Effect and Doses, mg/kg, sc [4]: no change: 6 mg/kg, 7 days
hS1P1 cAMP pEC50 [3]: >6.5
IC50 (hERG channel): > 10 µM

Compound: CC(C)n1nnc2cc(-c3nc(-c4ccncc4C(F)(F)F)no3)ccc21 [Compound 455, 1-(propan-2-yl)-5-{3-[3-(trifluoromethyl)pyridin-4-yl]-1,2,4-oxadiazol-5-yl}-1H-1,2,3-benzotriazole]
Emax [1]: < 50%
hS1P3 cAMP pEC50 [1]: <5.0
Lymphopenia: Effect and Doses, mg/kg, sc [4]: no change: 6 mg/kg, 7 days
Emax [3]: > 75%
hS1P1 cAMP pEC50 [3]: >6.5

Lymphopenia: Effect and Doses, mg/kg, sc (change in peripheral blood lymphocytes) ([4]; significance vs vehicle given): −28% not stat sig: 6 mg/kg, 7 days
Emax [3]: > 75%
hS1P1 cAMP pEC50 [3]: >6.5
Compound: CCC1(CC)CC(=O)c2cc(-c3nc(-c4cn[nH]c4)no3)ccc2O1 [Compound 469, 6-(3-(1H-pyrazol-4-yl)-1,2,4-oxadiazol-5-yl)-2,2-diethylchroman-4-one]
IC50 (hERG channel): > 10 µM
